Measured values published in US9746463B2 (THE TRUSTEES OF COLUMBIA UNIVERSITY IN THE CITY OF NEW YORK, priority 2006, dated 2017).
Ends that are not written are not given here.

Tests used:
[1] = Osteocalcin subcutaneous infusion in wt mice: glucose tolerance after glucose injection; format: in vivo, mouse; details: wild type mice, 0.3 or 3 ng/hour subcutaneously for 14 days, then glucose injection, 120 minutes, vs PBS
Protocol: FIG. 11. […] Wt mice were infused subcutaneously with indicated doses of recombinant osteocalcin or PBS for 14 days before receiving a single injection of glucose. Blood glucose was measured thereafter at indicated times.
(§1) Metabolic studies. For glucose tolerance test (GTT), glucose (2 g/kg body weight (BW)) was injected intraperitoneally (IP) after an overnight fast and blood glucose was monitored using blood glucose strips and the Accu-Check glucometer (Roche) at indicated times. For glucose stimulated insulin secretion test (GSIS), glucose (3 g/kg BW) was injected IP after an overnight fast; sera were collected from tails and insulin measured as described (Mauvais-Jarvis et al., 2000). For insulin tolerance test (ITT), mice were fasted for six hours, injected IP with insulin (0.2 U/kg BW) and blood glucose levels were measured at indicated times as described (Mauvais-Jarvis et al., 2002). ITT data are presented as percentage of initial blood glucose concentration. […] Streptozotocin ([…] single injection, Sigma) was injected IP and blood glucose measured as described above every 2 days thereafter. […] Food intake was measured using metabolic cages as the daily change of food weight. Energy expenditure was measured using metabolic cages connected to a calorimeter (Columbus Instrument). Heat values (Kcal/Hr) were recorded over 2 days and reported to each mouse BW. […]

[2] = Osteocalcin subcutaneous infusion in wt mice: insulin sensitivity after insulin injection; format: in vivo, mouse; details: wild type mice, 0.3 or 3 ng/hour subcutaneously for 18 days, then insulin injection, 0-120 minutes, vs PBS
Protocol: FIG. 12. […] Wt mice were infused subcutaneously with indicated doses of recombinant osteocalcin or PBS for 18 days before receiving a single injection of insulin. Blood glucose was measured thereafter at indicated times.
as §1

[3] = Osteocalcin subcutaneous infusion in GTG-induced obesity; format: in vivo, mouse
Protocol: FIG. 14. […] Wt mice were injected with gold thioglucose (GTG) or vehicle to induce hyperphagia and obesity. Two weeks later they were implanted with subcutaneous osmotic pumps infusing […] of recombinant osteocalcin or PBS for 28 days before. Body weight gain was recorded thereafter at indicated days.
The effect of uncarboxylated osteocalcin on GTG-induced obesity was investigated (FIG. 14). Wild type mice were injected with gold thioglucose (GTG) to induce hyperphagia and obesity or vehicle. Two weeks later they were implanted with subcutaneous osmotic pumps infusing 1 ng/hr of recombinant uncarboxylated osteocalcin or PBS for 28 days. […] At 28 days, body weight was reduced by about 15% with uncarboxylated osteocalcin treatment.

[4] = tested on: Insulin and Cyclin D1 expression in WT islets; test: Insulin and Cyclin D1 expression in islets cultured with uncarboxylated osteocalcin; format: cell-based, mouse; details: 0.3 ng/ml (FIG. 7L)
Protocol: FIG. 7A-O. Esp−/− Mice Are a Model of Increased Osteocalcin Bioactivity. (FIGS. 7A-G) Comparison between 6-week-old WT, Esp−/, Ocn+/−, and Esp−/−; Ocn+/− mice. (FIG. 7A) Blood glucose levels. (FIG. 7B) Serum insulin levels. (FIG. 7C) Serum adiponectin levels. (FIG. 7D) GTT. (FIG. 7E) ITT. (FIG. 7F) GSIS test. (FIG. 7G) Quantification of the number of Ki67-immunoreactive cells in pancreatic islets. […] (FIG. 7K) Expression of Adiponectin in WT adipocytes cultured in presence of vehicle or of 1 ng/ml of commercially available carboxylated osteocalcin (Immunotopics) or bacterially produced uncarboxylated osteocalcin. (FIG. 7L) Expression of Insulin and Cyclin D1 in WT islets cultured in presence of 0.3 ng/ml of bacterially produced uncarboxylated osteocalcin or vehicle. (FIG. 7M) Metabolic parameters and total serum osteocalcin levels in control and obese patients. (FIG. 7N-O) Quantification of carboxylated osteocalcin (HA-bound osteocalcin) in control and obese patients. In (FIGS. 7A)-(C) and (FIGS. G)-(L): *p<0.05 versus WT (Student's t test); in (FIG. D)-(F), °p<0.05 versus WT and *p % 0.001 versus WT (ANOVA followed by post hoc analysis).
Mouse islets and adipocytes isolation. Islets were isolated using a Histopaque gradient (1077, Sigma). […]

[5] = listed as recombinant osteocalcin

uncarboxylated osteocalcin: Recombinant mouse osteocalcin bacterially produced as GST fusion, cleaved with thrombin; completely undercarboxylated at all three sites (YLGASVPSPDPLEPTREQCELNPACDELSDQYGLKTAYKRIYGITI; not fully specified; ends and bridges not checked; UniProt P86546 50-95, looked up)
glucose tolerance [1]: increased glucose tolerance
glucose tolerance [1, 5]: increases glucose tolerance
insulin sensitivity [2]: increased
insulin sensitivity [2, 5]: increases insulin sensitivity
body weight gain ([3]; GTG-injected wild type mice, 1 ng/hr by osmotic pump for 28 days, from 7 days on, vs PBS): significantly reduced
reduction of body weight ([3]; GTG-injected wild type mice, 1 ng/hr, at 28 days): about 15%
GTG-induced obesity ([3]; wt mice, infusion for 28 days (figure legend)): prevents GTG-induced obesity
expression of Cyclin D1, marker of beta-cell proliferation [4]: induced
insulin expression [4]: induced insulin expression
